Tests used:
[1] = test system: Mycobacterium smegmatis mc^2 155; assay: MIC and MBIC (growth and biofilm formation), two-fold broth dilution in TYG; format: cell-based
Procedure: MICs and MBICs were evaluated using two-fold broth dilution series in 96-well round-bottom microtiter plates. […]
Two-fold dilutions were then prepared as follows. […] The box was placed into the 37° C. incubator and microbial growth and biofilm formation were assessed visually on a daily basis for six days. […]

[2] = test system: Saccharomyces cerevisiae NRRL Y-139; assay: MIC, two-fold broth dilution in TYG, 96-well microtiter plates; format: cell-based; settings: TunR2 in DMSO, TunR2-DOC and DOC in water, table prints no unit (dilution series in μg/mL)
Procedure: (§1) Seed cultures of Bacillus subtilis ATCC 6633, Escherichia coli ATCC 9637, Mycobacterium smegmatis mc^2 155, and Saccharomyces cerevisiae NRRL Y-139 were started from freezer stocks and grown in tryptone-yeast extract-glucose (TYG) broth for 24 hours at 27° C. Microbial dilutions were prepared as follows. Sterile PBS (phosphate buffer saline, 1 mL) was added to a glass tube using a disposable 10 mL pipet. Using a sterile loop microbial material was transferred from an agar plate, and the turbidity was measured and adjusted to 1.0 Macfarlane units. The inoculum dilution was then prepared. To a sterile 50 mL blue-capped centrifuge tube, 50 mL TYG stock media were added using a 25 mL disposable pipet. To this tube was then added 1 mL of the microbial dilution, and the contents were mixed by vortexing (this will give a 1:50 v/v dilution). This 1:50 v/v dilution inoculum was dispensed using a multichannel pipet, adding 100 μL to each well of a 96-well round-bottom microtiter plate.
(§2) MICs and MBICs were evaluated using two-fold broth dilution series in 96-well round-bottom microtiter plates. Diluted solutions were prepared by adding 20 μl of the 1 mg/mL stock of the TunR2 to 1.980 mL of TYG in a 15 mL blue-capped centrifuge tube for a total of 2 mL volume at 10 μg/mL. […] A blank of 20 μl dimethyl sulfoxide (DMSO) up to 2 mL TYG was also included. The microtiter plates were then set up as follows. To wells 1, 2, and 3 of the first row (A row) of the microtiter plate 200 μl of TYG media control were added. To wells 4, 5, and 6 in row A of the plate 200 μl TYG+TunR2 (10 μg/mL) were added. To wells 7, 8, and 9 in row A of the plate, 200 μl TYG+DOC (5 μg/mL) were added. And to wells 10, 11, and 12 in row A of the plate, 200 μl TYG+TunR2 (10 μg/mL)+DOC (5 μg/mL) were added. To the remaining wells of the microtiter plate 100 μl of the sterile TYG liquid media were added.
(§3) Two-fold dilutions were then prepared as follows. […] The box was placed into the 37° C. incubator and microbial growth and biofilm formation were assessed visually on a daily basis for six days.

[3] = test system: Bacillus subtilis ATCC 6633; assay: as above; format: cell-based; settings: TunR2 in DMSO, TunR2-DOC and DOC in water, table prints no unit (dilution series in μg/mL)
Procedure: as §1, §2, §3

[4] = test system: Escherichia coli ATCC 9637; assay: as above; format: cell-based; settings: TunR2 in DMSO, TunR2-DOC and DOC in water, table prints no unit (dilution series in μg/mL)
Procedure: as §1, §2, §3

[5] = DOSY-NMR, 10 mM in D2O, 600 MHz, not a partition coefficient
Procedure: 1H and 2D NMR (COSY, HSQC, and HMBC) spectra were recorded on a Bruker Avance III 500 MHz spectrometer operating at 125 MHz. The spectra were obtained in methanol-d4 or DMSO-d6 using residual solvent signals as internal standards. Diffusion orientated (DOSY) NMR spectra were obtained on a JEOL 600 mHz instrument using DOSY pulse sequences provide by the manufacturer.
The diffusion constants (log D) of residual deuterated water (HDO) and methanol (MeOD) are also indicated on the graphs. The corresponding ^1H-NMR spectra are shown above the graphs. All spectra were acquired at 600 MHz.

[6] = Solubilization in water with sodium deoxycholate; format: physicochemical; settings: at 50° C., same conditions for tunicamycin and TunR1
Procedure: (§4) The modified tunicamycin TunR2 solid powder (8 mg, […]) and DOC solid powder (4.4 mg, […]) were vortexed together in an equimolar ratio, and was prepared in water for injection (3 mL) and stirred until dissolved. If needed, the pH was adjusted to 5.8 by addition of 10% acetic acid. The TunR2 was initially insoluble under these conditions, but began to dissolve after 5 minutes at 50° C. (in the range of about 50° C. to about 70° C.) and was completely soluble after 10 minutes at this temperature (FIG. 6A to FIG. 6C). […] The native tunicamycin solution became somewhat hazy after this time, but was readily clarified on gentle re-warming.
(§5) The present work undertaken to develop a water-soluble TunR2 formulation solubilized by sodium deoxycholate to reduce the solvent toxicity and to improve the physiochemical properties. Solutions were prepared either by mixing together TunR2 and DOC powders in equimolar portions and adding water, or by preparing a DOC aqueous stock solution and adding this directly to the TunR2. At 10 mg/mL, the TunR2 was initially insoluble under these conditions, but began to dissolve after 5 minutes at 50° C. and was completely soluble after 10 minutes at this temperature. […] The native tunicamycin solution became somewhat hazy after this time, but was readily clarify on gentle re-warming.

[7] = Stability of the aqueous DOC solutions on standing at room temperature; format: physicochemical; settings: 18 hours at room temperature
Procedure: as §4, §5

Substance	effect of DOC control in the MIC assays ([1]; DOC at the same concentration as the TunR2)	Minimal Inhibitory Concentration ([1]; first figure of cell MIC/MBIC, TunR2 in DMSO, TunR2-DOC and DOC in water, unit not given)	Minimal Inhibitory Concentration [2]	Minimal Inhibitory Concentration [3]	Minimal Inhibitory Concentration [4]	diffusion constant (log D) [5]	time to complete dissolution in water with DOC ([6]; 8 mg TunR2 + 4.4 mg DOC in 3 mL water for injection) [min]	time to complete dissolution in water with DOC ([6]; at 10 mg/mL, equimolar DOC) [min]	state of aqueous DOC solution after cooling and standing [7]
5β-cholan-24-oic acid-3α, 12α-diol sodium salt [DOC]	no effect	>2.5	>2.5	>2.5	>2.5	−9.66	–	–	–
tunicamycin	–	–	–	–	–	–	≤ 5	≤ 5	somewhat hazy
